Data taken from the NIST ThermoML archive (doi:10.1021/acs.jced.7b00773).

Settings: Liquid; for viscosity: Concentric cylinders viscometry

CCCCCCn1cc[n+](C)c1.N#C[B-](C#N)(C#N)C#N [1-hexyl-3-methylimidazolium tetracyanoborate]
100 kPa
Settings	viscosity [mPa·s]
293.15 K	63.69
303.15 K	38.1
313.15 K	24.73
323.15 K	17.12
333.15 K	12.48
343.15 K	9.467
353.15 K	7.423
363.15 K	5.982
373.15 K	4.929

Settings	mass density [kg/m3]
293.15 K, 100 kPa, Vibrating tube method	994.4
303.15 K, 100 kPa, Vibrating tube method	987.3
311.8 K, 10000 kPa, Bellows volumetry	986.2
311.8 K, 20000 kPa, Bellows volumetry	991.5
311.8 K, 30000 kPa, Bellows volumetry	996.5
311.8 K, 40000 kPa, Bellows volumetry	1001.3
311.8 K, 50000 kPa, Bellows volumetry	1005.9
311.8 K, 60000 kPa, Bellows volumetry	1010.3
311.8 K, 70000 kPa, Bellows volumetry	1014.5
311.8 K, 80000 kPa, Bellows volumetry	1018.6
311.8 K, 90000 kPa, Bellows volumetry	1022.6
311.8 K, 100000 kPa, Bellows volumetry	1026.5
311.8 K, 110000 kPa, Bellows volumetry	1030.2
311.8 K, 120000 kPa, Bellows volumetry	1034
311.8 K, 130000 kPa, Bellows volumetry	1037.6
311.8 K, 140000 kPa, Bellows volumetry	1041.1
311.8 K, 150000 kPa, Bellows volumetry	1044.6
311.8 K, 160000 kPa, Bellows volumetry	1047.9
311.8 K, 170000 kPa, Bellows volumetry	1051.2
311.8 K, 180000 kPa, Bellows volumetry	1054.4
311.8 K, 190000 kPa, Bellows volumetry	1057.6
311.8 K, 200000 kPa, Bellows volumetry	1060.7
313.15 K, 100 kPa, Vibrating tube method	980.1
323.15 K, 100 kPa, Vibrating tube method	973
331.8 K, 10000 kPa, Bellows volumetry	972.5
331.8 K, 20000 kPa, Bellows volumetry	978.1
331.8 K, 30000 kPa, Bellows volumetry	983.3
331.8 K, 40000 kPa, Bellows volumetry	988.5
331.8 K, 50000 kPa, Bellows volumetry	993.3
331.8 K, 60000 kPa, Bellows volumetry	998
331.8 K, 70000 kPa, Bellows volumetry	1002.3
331.8 K, 80000 kPa, Bellows volumetry	1006.7
331.8 K, 90000 kPa, Bellows volumetry	1010.8
331.8 K, 100000 kPa, Bellows volumetry	1014.9
331.8 K, 110000 kPa, Bellows volumetry	1018.8
331.8 K, 120000 kPa, Bellows volumetry	1022.6
331.8 K, 130000 kPa, Bellows volumetry	1026.4
331.8 K, 140000 kPa, Bellows volumetry	1030
331.8 K, 150000 kPa, Bellows volumetry	1033.5
331.8 K, 160000 kPa, Bellows volumetry	1037
331.8 K, 170000 kPa, Bellows volumetry	1040.4
331.8 K, 180000 kPa, Bellows volumetry	1043.7
331.8 K, 190000 kPa, Bellows volumetry	1047
331.8 K, 200000 kPa, Bellows volumetry	1050.2
333.15 K, 100 kPa, Vibrating tube method	966
343.15 K, 100 kPa, Vibrating tube method	959.1
351.6 K, 10000 kPa, Bellows volumetry	959.1
351.6 K, 20000 kPa, Bellows volumetry	965.1
351.6 K, 30000 kPa, Bellows volumetry	970.6
351.6 K, 40000 kPa, Bellows volumetry	976
351.6 K, 50000 kPa, Bellows volumetry	981
351.6 K, 60000 kPa, Bellows volumetry	985.9
351.6 K, 70000 kPa, Bellows volumetry	990.5
351.6 K, 80000 kPa, Bellows volumetry	995.1
351.6 K, 90000 kPa, Bellows volumetry	999.4
351.6 K, 100000 kPa, Bellows volumetry	1003.6
351.6 K, 110000 kPa, Bellows volumetry	1007.6
351.6 K, 120000 kPa, Bellows volumetry	1011.5
351.6 K, 130000 kPa, Bellows volumetry	1015.4
351.6 K, 140000 kPa, Bellows volumetry	1019.2
351.6 K, 150000 kPa, Bellows volumetry	1022.9
351.6 K, 160000 kPa, Bellows volumetry	1026.4
351.6 K, 170000 kPa, Bellows volumetry	1029.9
351.6 K, 180000 kPa, Bellows volumetry	1033.3
351.6 K, 190000 kPa, Bellows volumetry	1036.7
351.6 K, 200000 kPa, Bellows volumetry	1040
353.15 K, 100 kPa, Vibrating tube method	952.2
363.15 K, 100 kPa, Vibrating tube method	945.4
371.8 K, 10000 kPa, Bellows volumetry	945.8
371.8 K, 20000 kPa, Bellows volumetry	952
371.8 K, 30000 kPa, Bellows volumetry	957.9
371.8 K, 40000 kPa, Bellows volumetry	963.6
371.8 K, 50000 kPa, Bellows volumetry	969
371.8 K, 60000 kPa, Bellows volumetry	974
371.8 K, 70000 kPa, Bellows volumetry	978.8
371.8 K, 80000 kPa, Bellows volumetry	983.6
371.8 K, 90000 kPa, Bellows volumetry	988.1
371.8 K, 100000 kPa, Bellows volumetry	992.4
371.8 K, 110000 kPa, Bellows volumetry	996.7
371.8 K, 120000 kPa, Bellows volumetry	1000.8
371.8 K, 130000 kPa, Bellows volumetry	1004.8
371.8 K, 140000 kPa, Bellows volumetry	1008.7
371.8 K, 150000 kPa, Bellows volumetry	1012.5
371.8 K, 160000 kPa, Bellows volumetry	1016.1
371.8 K, 170000 kPa, Bellows volumetry	1019.7
371.8 K, 180000 kPa, Bellows volumetry	1023.3
371.8 K, 190000 kPa, Bellows volumetry	1026.7
371.8 K, 200000 kPa, Bellows volumetry	1030.1
373.15 K, 100 kPa, Vibrating tube method	938.7
392 K, 10000 kPa, Bellows volumetry	932.8
392 K, 20000 kPa, Bellows volumetry	939.4
392 K, 30000 kPa, Bellows volumetry	945.7
392 K, 40000 kPa, Bellows volumetry	951.6
392 K, 50000 kPa, Bellows volumetry	957.2
392 K, 60000 kPa, Bellows volumetry	962.5
392 K, 70000 kPa, Bellows volumetry	967.6
392 K, 80000 kPa, Bellows volumetry	972.6
392 K, 90000 kPa, Bellows volumetry	977.3
392 K, 100000 kPa, Bellows volumetry	981.8
392 K, 110000 kPa, Bellows volumetry	986.3
392 K, 120000 kPa, Bellows volumetry	990.5
392 K, 130000 kPa, Bellows volumetry	994.6
392 K, 140000 kPa, Bellows volumetry	998.6
392 K, 150000 kPa, Bellows volumetry	1002.5
392 K, 160000 kPa, Bellows volumetry	1006.3
392 K, 170000 kPa, Bellows volumetry	1010
392 K, 180000 kPa, Bellows volumetry	1013.6
392 K, 190000 kPa, Bellows volumetry	1017.2
392 K, 200000 kPa, Bellows volumetry	1020.6
412.1 K, 10000 kPa, Bellows volumetry	920.1
412.1 K, 20000 kPa, Bellows volumetry	927
412.1 K, 30000 kPa, Bellows volumetry	933.7
412.1 K, 40000 kPa, Bellows volumetry	939.9
412.1 K, 50000 kPa, Bellows volumetry	945.8
412.1 K, 60000 kPa, Bellows volumetry	951.4
412.1 K, 70000 kPa, Bellows volumetry	956.7
412.1 K, 80000 kPa, Bellows volumetry	961.8
412.1 K, 90000 kPa, Bellows volumetry	966.8
412.1 K, 100000 kPa, Bellows volumetry	971.4
412.1 K, 110000 kPa, Bellows volumetry	976
412.1 K, 120000 kPa, Bellows volumetry	980.4
412.1 K, 130000 kPa, Bellows volumetry	984.7
412.1 K, 140000 kPa, Bellows volumetry	988.8
412.1 K, 150000 kPa, Bellows volumetry	992.8
412.1 K, 160000 kPa, Bellows volumetry	996.7
412.1 K, 170000 kPa, Bellows volumetry	1000.6
412.1 K, 180000 kPa, Bellows volumetry	1004.3
412.1 K, 190000 kPa, Bellows volumetry	1007.9
412.1 K, 200000 kPa, Bellows volumetry	1011.5
